Where “and” joins values, the source holds several entries; their conditions need not be identical. Equal entries are not always repeated. Numbers after ± are expanded uncertainties.
Conditions: Crystal, Closed cell (Static) method

SMILES: c1ccccc1 [benzene]
- vapor or sublimation pressure (233.2 K): 0.09891 ± 0.002 kPa and 0.09902 ± 0.002 kPa and 0.09885 ± 0.002 kPa
- vapor or sublimation pressure (235.7 K): 0.1277 ± 0.0025 kPa
- vapor or sublimation pressure (238.21 K): 0.1641 ± 0.0027 kPa
- vapor or sublimation pressure (240.7 K): 0.2093 ± 0.0033 kPa and 0.2094 ± 0.0033 kPa and 0.2095 ± 0.0033 kPa
- vapor or sublimation pressure (243.2 K): 0.2655 ± 0.004 kPa and 0.2656 ± 0.004 kPa
- vapor or sublimation pressure (245.68 K): 0.3351 ± 0.0049 kPa and 0.3352 ± 0.0049 kPa and 0.335 ± 0.0049 kPa
- vapor or sublimation pressure (248.18 K): 0.4206 ± 0.0059 kPa and 0.4205 ± 0.0059 kPa
- vapor or sublimation pressure (250.68 K): 0.5253 ± 0.0073 kPa and 0.5257 ± 0.0073 kPa
- vapor or sublimation pressure (253.17 K): 0.6533 ± 0.0089 kPa and 0.6532 ± 0.0089 kPa and 0.6543 ± 0.0089 kPa
- vapor or sublimation pressure (255.67 K): 0.8095 ± 0.011 kPa and 0.8096 ± 0.011 kPa and 0.8092 ± 0.011 kPa
- vapor or sublimation pressure (258.16 K): 0.9997 ± 0.013 kPa and 0.9995 ± 0.013 kPa and 0.9994 ± 0.013 kPa
- vapor or sublimation pressure (260.68 K): 1.231 ± 0.016 kPa and 1.229 ± 0.016 kPa
